Common to all, as to type: biochemical
In one assay the target is T1, MKK4 (Homo sapiens, UniProt P45985).
T1 construct: purchased ProQinase GmbH, Freiburg, Germany (33PanQinase Assay Service)
T1 sequence (P45985 1-399): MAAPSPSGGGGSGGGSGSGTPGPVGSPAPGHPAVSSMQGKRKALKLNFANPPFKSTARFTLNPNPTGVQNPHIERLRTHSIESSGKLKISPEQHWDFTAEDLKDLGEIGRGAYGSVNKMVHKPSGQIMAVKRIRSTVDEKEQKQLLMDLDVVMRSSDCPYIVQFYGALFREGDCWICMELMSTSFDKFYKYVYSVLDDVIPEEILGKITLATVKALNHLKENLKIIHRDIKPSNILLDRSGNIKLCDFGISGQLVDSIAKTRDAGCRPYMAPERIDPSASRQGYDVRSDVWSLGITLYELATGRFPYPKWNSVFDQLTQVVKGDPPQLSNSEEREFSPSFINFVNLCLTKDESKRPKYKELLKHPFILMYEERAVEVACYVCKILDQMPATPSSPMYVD
Put plainly: 33PanQinase enzyme assay, MKK4. The conditions noted are these: assay 'IC50'; read-out: Potency MKK4 (IC50). How it is done: (§1) The kinase activities of the compounds of the invention were measured using the 33PanQinase® Assay Service provided by ProQinase GmbH, Freiburg, Germany. Details of the assay conditions are disclosed on the website of ProQinase (https://www.proginase.com/products-services-biochemical-assay-services/kinase-assays). In brief, all kinase assays were performed in 96-well FlashPlates™ from PerkinElmer (Boston, MA, USA) in a 50 μl reaction volume. The reaction cocktail was pipetted in four steps in the following order: • 20 μl of assay buffer (standard buffer) • 5 μl of ATP solution (in H2O) • 5 μl of test compound (in 10% DMSO) • 20 μl enzyme/subtrate mix
(§2) The reaction cocktails were incubated at 30° C. for 60 minutes. The reaction is stopped with 50 μl of 2% (v/v) H3PO4, plates were aspirated and washed two times with 200 μl 0.9% (w/v) NaCl. Incorporation of ^33Pi was determined with a microplate scintillation counter (Microbeta, Wallac).
(§3) All assays were performed with a BeckmanCoulter/SAGIAN™ Core System.
(§4) In case of single concentration assays, the potency of the test compound is expressed as % residual activity. […] The fitting method used was a least-squares fit.
Inhibition potency against MKK4 is categorized as follows:
Assay at single concentration (100 nM):

The target in another assay is JNK1 (Homo sapiens, UniProt P45983). Put plainly: 33PanQinase enzyme assay, JNK1. Also noted: purchased ProQinase GmbH, Freiburg, Germany (33PanQinase Assay Service). The conditions noted are these: ratio IC50(JNK1)/IC50(MKK4). The protocol: as §1, §2, §3, §4
Sequence of JNK1 (P45983 whole entry): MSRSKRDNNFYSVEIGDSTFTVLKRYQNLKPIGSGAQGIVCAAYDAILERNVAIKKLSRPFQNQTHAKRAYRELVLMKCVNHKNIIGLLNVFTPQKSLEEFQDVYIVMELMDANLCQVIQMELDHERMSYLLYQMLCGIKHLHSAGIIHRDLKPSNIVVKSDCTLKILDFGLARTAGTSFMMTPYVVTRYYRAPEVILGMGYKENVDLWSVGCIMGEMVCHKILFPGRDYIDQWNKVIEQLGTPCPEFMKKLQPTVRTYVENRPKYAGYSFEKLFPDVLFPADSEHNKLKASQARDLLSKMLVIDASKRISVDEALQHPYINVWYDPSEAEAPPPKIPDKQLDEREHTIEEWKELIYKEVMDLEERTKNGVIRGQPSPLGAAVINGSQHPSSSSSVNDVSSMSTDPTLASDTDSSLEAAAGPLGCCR
(§5) Selectivity of test compounds against BRaf, JNK1 and MKK7, altogether denominated as off-targets was calculated by the ratio of IC50 (off-target)/IC50 (MKK4) and categorized as follows: […]

The target of another assay is T2, MKK7 (Homo sapiens, UniProt O14733).
T2 sequence (O14733 1-419): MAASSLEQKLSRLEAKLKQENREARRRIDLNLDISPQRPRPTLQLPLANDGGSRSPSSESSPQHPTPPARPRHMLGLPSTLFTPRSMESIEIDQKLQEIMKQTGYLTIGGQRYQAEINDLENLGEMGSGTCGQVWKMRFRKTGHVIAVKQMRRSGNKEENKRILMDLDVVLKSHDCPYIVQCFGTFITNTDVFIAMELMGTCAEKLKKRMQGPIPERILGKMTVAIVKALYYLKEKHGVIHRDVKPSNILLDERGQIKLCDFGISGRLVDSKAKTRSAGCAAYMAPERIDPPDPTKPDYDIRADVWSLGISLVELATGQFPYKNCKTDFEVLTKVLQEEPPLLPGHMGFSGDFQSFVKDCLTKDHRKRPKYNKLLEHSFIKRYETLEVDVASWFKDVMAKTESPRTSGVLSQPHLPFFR
Kind of assay: 33PanQinase enzyme assay, MKK7. Also noted: purchased ProQinase GmbH, Freiburg, Germany (33PanQinase Assay Service). The conditions noted are these: ratio IC50(MKK7)/IC50(MKK4). How it is done:
as §1, §2, §3, §4, §5

For another assay, the target named is T3, BRaf (Homo sapiens, UniProt P15056).
T3 construct: purchased ProQinase GmbH, Freiburg, Germany (33PanQinase Assay Service)
T3 sequence (P15056 whole entry, species assumed): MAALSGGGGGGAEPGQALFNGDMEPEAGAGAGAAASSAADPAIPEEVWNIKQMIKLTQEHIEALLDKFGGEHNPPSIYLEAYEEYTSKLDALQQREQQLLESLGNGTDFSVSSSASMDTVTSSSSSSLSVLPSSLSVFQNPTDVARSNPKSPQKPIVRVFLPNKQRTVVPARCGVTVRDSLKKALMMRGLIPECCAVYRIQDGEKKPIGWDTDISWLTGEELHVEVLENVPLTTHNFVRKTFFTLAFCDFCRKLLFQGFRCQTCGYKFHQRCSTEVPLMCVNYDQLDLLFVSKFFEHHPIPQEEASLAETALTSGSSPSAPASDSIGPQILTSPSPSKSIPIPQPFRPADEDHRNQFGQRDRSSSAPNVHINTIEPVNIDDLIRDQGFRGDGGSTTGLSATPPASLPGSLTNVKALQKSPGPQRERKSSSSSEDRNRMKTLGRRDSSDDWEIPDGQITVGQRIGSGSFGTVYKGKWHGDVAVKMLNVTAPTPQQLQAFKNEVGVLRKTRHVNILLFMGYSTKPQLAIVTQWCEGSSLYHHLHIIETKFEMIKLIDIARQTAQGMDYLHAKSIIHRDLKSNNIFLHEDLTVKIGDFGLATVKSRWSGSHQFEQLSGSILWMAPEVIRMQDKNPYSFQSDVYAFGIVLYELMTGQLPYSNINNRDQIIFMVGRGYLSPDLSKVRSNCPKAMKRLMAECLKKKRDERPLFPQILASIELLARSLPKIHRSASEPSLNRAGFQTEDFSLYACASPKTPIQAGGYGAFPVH
Kind of assay: 33PanQinase enzyme assay, BRaf. To be noted: ratio IC50(BRaf)/IC50(MKK4). How it is done:
as §1, §2, §3, §4, §5

As to `CCCS(=O)(=O)Nc1c(F)ccc(C(=O)c2c[nH]c3ncc(-c4ccc(F)cc4Cl)cc23)c1F` [Example 221, N-(3-(5-(2-chloro-4-fluorophenyl)-1H-pyrrolo[2,3-b]pyridine-3-carbonyl)-2,6-difluorophenyl)propane-1-sulfonamide], on MKK4, the IC50 is under 100 nM. Moreover, the “Selectivity JNK1, IC50(off-target)/IC50(MKK4)” value (“Selectivity JNK1” below) at JNK1 is given as “++ (100 ≥ IC50(off-target)/IC50(MKK4) > 10)”. Also, the “Selectivity IVIKK7, IC50(off-target)/IC50(MKK4)” value (“Selectivity IVIKK7” below) on MKK7 was “+++ (IC50(off-target)/IC50(MKK4) > 100)”. In addition, the “Selectivity Braf, IC50(off-target)/IC50(MKK4)” value (from here on “Selectivity Braf”) on BRaf was “+++ (IC50(off-target)/IC50(MKK4) > 100)”.

For `O=C(c1c(F)ccc(NS(=O)(=O)CCC(F)(F)F)c1F)c1c[nH]c2ncc(-c3ccc(N4CCSCC4)nc3)cc12` [Example 80, N-(2,4-difluoro-3-(5-(6-thiomorpholinopyridin-3-yl)-1H-pyrrolo[2,3-b]pyridine-3-carbonyl)phenyl)-3,3,3-trifluoropropane-1-sulfonamide], the IC50 at MKK4 was under 100 nM. For the same molecule, the “Selectivity JNK1” value on JNK1 is given as “++ (100 ≥ IC50(off-target)/IC50(MKK4) > 10)”. For the same molecule, at MKK7, the “Selectivity IVIKK7” value was “+++ (IC50(off-target)/IC50(MKK4) > 100)”. The “Selectivity Braf” value at BRaf is listed as “++ (100 ≥ IC50(off-target)/IC50(MKK4) > 10)”.

With `CCCS(=O)(=O)Nc1c(F)ccc(C(=O)c2c[nH]c3ncc(-c4cnc(C(C)C)nc4)cc23)c1F` [Example 193, N-(2,6-difluoro-3-(5-(2-isopropylpyrimidin-5-yl)-1H-pyrrolo[2,3-b]pyridine-3-carbonyl)phenyl)propane-1-sulfonamide], the IC50 at MKK4 is under 100 nM. In addition, the “Selectivity JNK1” value on JNK1 is on record as “+++ (IC50(off-target)/IC50(MKK4) > 100)”. The “Selectivity IVIKK7” value at MKK7 is given as “+++ (IC50(off-target)/IC50(MKK4) > 100)”. Moreover, on BRaf, the “Selectivity Braf” value is “++ (100 ≥ IC50(off-target)/IC50(MKK4) > 10)”.

Turning to `O=C(c1ccc(F)c(NS(=O)(=O)CCC(F)(F)F)c1F)c1c[nH]c2ncc(-c3cnc(C(F)(F)F)nc3)cc12` [Example 142, N-(2,6-difluoro-3-(5-(2-(trifluoromethyl)pyrimidin-5-yl)-1H-pyrrolo[2,3-b]pyridine-3-carbonyl)phenyl)-3,3,3-trifluoro-propane-1-sulfonamide], the IC50 on MKK4 is under 100 nM. At JNK1, the “Selectivity JNK1” value is “++·+”. Moreover, the “Selectivity IVIKK7” value on MKK7 is reported as “+++ (IC50(off-target)/IC50(MKK4) > 100)”. Also, the “Selectivity Braf” value at BRaf is recorded as “+++ (IC50(off-target)/IC50(MKK4) > 100)”.

As to `CCCS(=O)(=O)Nc1c(F)ccc(C(=O)c2c[nH]c3ncc(-c4cnc(NCCO)nc4)cc23)c1F` [Example 201, N-(2,6-difluoro-3-(5-(2-((2-hydroxyethyl)amino)pyrimidin-5-yl)-1H-pyrrolo[2,3-b]pyridine-3-carbonyl)phenyl)propane-1-sulfonamide], the IC50 on MKK4 was under 100 nM. Moreover, the “Selectivity JNK1” value on JNK1 is reported as “+++ (IC50(off-target)/IC50(MKK4) > 100)”. For the same molecule, on MKK7, the “Selectivity IVIKK7” value was “+++ (IC50(off-target)/IC50(MKK4) > 100)”. Further, on BRaf, the “Selectivity Braf” value is given as “+++ (IC50(off-target)/IC50(MKK4) > 100)”.

Take `CCCS(=O)(=O)Nc1c(F)ccc(C(=O)c2c[nH]c3ncc(-c4ccc(C)nc4Cl)cc23)c1F` [Example 166, N-(3-(5-(2-chloro-6-methylpyridin-3-yl)-1H-pyrrolo[2,3-b]pyridine-3-carbonyl)-2,6-difluorophenyl)propane-1-sulfonamide]: at MKK4, the IC50 is under 100 nM. Besides, the “Selectivity JNK1” value at JNK1 is reported as “+++ (IC50(off-target)/IC50(MKK4) > 100)”. Moreover, the “Selectivity IVIKK7” value at MKK7 was “+++ (IC50(off-target)/IC50(MKK4) > 100)”. The “Selectivity Braf” value on BRaf was “+++ (IC50(off-target)/IC50(MKK4) > 100)”.

On to `CCCS(=O)(=O)Nc1ccc(F)c(C(=O)c2c[nH]c3ncc(-c4ccccc4C#N)cc23)c1F` [Example 118, N-(3-(5-(2-cyanophenyl)-1H-pyrrolo[2,3-b]pyridine-3-carbonyl)-2,4-difluorophenyl)propane-1-sulfonamide], for which the IC50 at MKK4 is 100 to 1000 nM. For the same molecule, on JNK1, the “Selectivity JNK1” value was “+ (10 ≥ IC50(off-target)/IC50(MKK4) > 3)”. For the same molecule, the “Selectivity IVIKK7” value on MKK7 is listed as “+++ (IC50(off-target)/IC50(MKK4) > 100)”. For the same molecule, on BRaf, the “Selectivity Braf” value was “◯ (3 ≥ IC50(off-target)/IC50(MKK4))”.

Consider `CCCS(=O)(=O)Nc1c(F)ccc(C(=O)c2c[nH]c3ncc(-c4ccccc4Cl)cc23)c1F` [Example 213, N-(3-(5-(2-chlorophenyl)-1H-pyrrolo[2,3-b]pyridine-3-carbonyl)-2,6-difluorophenyl)propane-1-sulfonamide], for which the concentration for half-maximal inhibition (IC50) at MKK4 was under 100 nM. Moreover, the “Selectivity JNK1” value on JNK1 is “++ (100 ≥ IC50(off-target)/IC50(MKK4) > 10)”. Also, the “Selectivity IVIKK7” value on MKK7 is given as “+++ (IC50(off-target)/IC50(MKK4) > 100)”. For the same molecule, at BRaf, the “Selectivity Braf” value is given as “+++ (IC50(off-target)/IC50(MKK4) > 100)”.

Regarding `CCCS(=O)(=O)Nc1c(F)ccc(C(=O)c2c[nH]c3ncc(-c4cnc(CF)nc4)cc23)c1F` [Example 207, N-(2,6-difluoro-3-(5-(2-(fluoromethyl)pyrimidin-5-yl)-1H-pyrrolo[2,3-b]pyridine-3-carbonyl)phenyl)propane-1-sulfonamide], the IC50 on MKK4 was in the range of 100 to 1000 nM. On JNK1, the “Selectivity JNK1” value is listed as “++ (100 ≥ IC50(off-target)/IC50(MKK4) > 10)”. Also, on MKK7, the “Selectivity IVIKK7” value was “+++ (IC50(off-target)/IC50(MKK4) > 100)”. Besides, at BRaf, the “Selectivity Braf” value is reported as “+++ (IC50(off-target)/IC50(MKK4) > 100)”.

As for `CCCS(=O)(=O)Nc1ccc(F)c(C(=O)c2c[nH]c3ncc(-c4ccc5c(c4)C=C(C)N=S5(C)=O)cc23)c1F` (stereo not drawn) [Example 95, N-(3-(5-(1,3-dimethyl-1-oxido-1l4-benzo[e][1,2]thiazin-6-yl)-1H-pyrrolo[2,3-b]pyridine-3-carbonyl)-2,4-difluorophenyl)propane-1-sulfonamide], the IC50 on MKK4 lay within 100 to 1000 nM. The “Selectivity JNK1” value on JNK1 is “◯ (3 ≥ IC50(off-target)/IC50(MKK4))”. Further, on MKK7, the “Selectivity IVIKK7” value is listed as “+++ (IC50(off-target)/IC50(MKK4) > 100)”. Also, the “Selectivity Braf” value at BRaf is given as “◯ (3 ≥ IC50(off-target)/IC50(MKK4))”.

Consider `CCCS(=O)(=O)Nc1ccc(F)c(C(=O)c2c[nH]c3ncc(-c4ccccc4N)cc23)c1F` [Example 122, N-(3-(5-(2-aminophenyl)-1H-pyrrolo[2,3-b]pyridine-3-carbonyl)-2,4-difluorophenyl)propane-1-sulfonamide], for which the IC50 on MKK4 lay in the range of 100 to 1000 nM. Besides, the “Selectivity JNK1” value on JNK1 is on record as “◯ (3 ≥ IC50(off-target)/IC50(MKK4))”. In addition, the “Selectivity IVIKK7” value on MKK7 is listed as “+++ (IC50(off-target)/IC50(MKK4) > 100)”. For the same molecule, the “Selectivity Braf” value at BRaf was “◯ (3 ≥ IC50(off-target)/IC50(MKK4))”.

Consider `CCCS(=O)(=O)Nc1ccc(F)c(C(=O)c2c[nH]c3ncc(-c4ccc(S(=O)(=O)C(F)F)cc4)cc23)c1F` [Example 74, N-(3-(5-(4-((difluoromethyl)sulfonyl)phenyl)-1H-pyrrolo[2,3-b]pyridine-3-carbonyl)-2,4-difluorophenyl)propane-1-sulfonamide], for which, at MKK4, the IC50 was in the range of 100 to 1000 nM. In addition, the “Selectivity JNK1” value at JNK1 is “+ (10 ≥ IC50(off-target)/IC50(MKK4) > 3)”. The “Selectivity IVIKK7” value at MKK7 is reported as “+++ (IC50(off-target)/IC50(MKK4) > 100)”. In addition, the “Selectivity Braf” value at BRaf was “◯ (3 ≥ IC50(off-target)/IC50(MKK4))”.

For orientation: IC50 means the concentration at which inhibition is half-maximal.
